From ChEMBL document CHEMBL5728270, “Immunomodulator compounds” (2021) come the findings set out here.

This experiment in a line: Enzyme-Linked Immunosorbent Assay ELISA: 96 Well plates were coated with […] of human PD-L1 (obtained from R&D) in PBS overnight at 4° C. The wells were then blocked with 2% BSA in PBS (W/V) with 0.05% TWEEN-20 for 1 hour at 37° C. The plates were washed 3 times with PBS/0.05% TWEEN-20 and the compounds were serial diluted (1:5) in dilution medium and added to the ELISA plates. Human PD-1 and biotin 0.3 μg/mL (ACRO Biosystems) were added and incubated for 1 hour at 37° C. then washed 3 times with PBS/0.05% TWEEN-20. A second block was performed with 2% BSA in PBS (W/V)/0.05% TWEEN-20 for 10 min at 37° C. and was washed 3 times with PBS/0.05% TWEEN-20. Streptavidin-HRP was added for 1 hour at 37° C. then washed 3 times with PBS/0.05% TWEEN-20. TMB substrate was added and reacted for 20 min at 37° C. A stop solution (2 N aqueous H2SO4) was added. The absorbance was read at 450 nm using a micro-plate spectrophotometer. (ELISA stands for enzyme-linked immunosorbent assay.)
For `C[C@@](CO)(NCc1cc(Cl)c(O[C@H]2CCc3c(-c4cccc(OCCCN5CCC(O)CC5)c4Cl)cccc32)cc1OCc1cncc(C#N)c1)C(=O)O`, the IC50 (as a rule, the concentration that gives 50% inhibition) was less than 5 nM.
Under `Cc1c(OCCCN2CCC(O)CC2)cccc1-c1cccc2c1CC[C@@H]2Oc1cc(OCc2cc(C#N)cc(C#N)c2)c(CN[C@@](C)(CO)C(=O)O)cc1Cl` stands less than 5 nM.
Under `Cc1c(OCCCN2CCC(O)CC2)cccc1-c1cccc2c1CC[C@@H]2Oc1cc(OCc2cncc(C#N)c2)c(CN[C@H](C(=O)O)[C@@H](C)O)cc1Cl` stands less than 5 nM; under `N#Cc1cncc(COc2cc(O[C@H]3CCc4c(-c5cccc(OCCCN6CCC(F)CC6)c5Cl)cccc43)c(Cl)cc2CN[C@H]2CCOC[C@@H]2O)c1`, less than 5 nM.
